# ChEMBL document CHEMBL3885881, “DrugMatrix”
# Species on record: Rattus norvegicus
# Experiment: DrugMatrix - Regimen: Daily Repeat
# Assay type: toxicity, organism-based, Sprague-Dawley
# Design: regimen Daily Repeat, gender Male, age 6-8 weeks
# Details: in vivo, po, route oral GAVAGE, vehicle .5 % CMC; for ABSOLUTE BASOPHIL / ABSOLUTE EOSINOPHIL / ABSOLUTE LYMPHOCYTE / ABSOLUTE MONOCYTE / ABSOLUTE SEGMENTED NEUTROPHIL / BASOPHIL / EOSINOPHIL / ERYTHROCYTE COUNT / HEMATOCRIT / HEMOGLOBIN / LEUKOCYTE COUNT / LYMPHOCYTE / MEAN CORPUSCULAR HEMOGLOBIN / MEAN CORPUSCULAR HEMOGLOBIN CONCENTRATION / MEAN CORPUSCULAR VOLUME / MONOCYTE / NEUTROPHIL / NUCLEATED RED BLOOD CELLS / PLATELET COUNT: tissue Blood; for ALANINE AMINOTRANSFERASE / ALBUMIN / ALKALINE PHOSPHATASE / ASPARTATE AMINOTRANSFERASE / BLOOD UREA NITROGEN / CARBON DIOXIDE / CHOLESTEROL / CREATINE PHOSPHOKINASE / CREATININE / GLUCOSE / LACTATE DEHYDROGENASE / LIPASE / PHOSPHORUS / SODIUM / TOTAL BILIRUBIN / TOTAL PROTEIN / URIC ACID: tissue Plasma
# [1] = 15 mg/kg, 72 h, dose level Low, time 3 day
# [2] = 15 mg/kg, 120 h, dose level Low, time 5 day
# [3] = 750 mg/kg, 72 h, dose level High, time 3 day
# [4] = 750 mg/kg, 120 h, dose level High, time 5 day
smiles,measurement,setting,value
CC(C)(C)c1ccc(C(O)CCCN2CCC(C(O)(c3ccccc3)c3ccccc3)CC2)cc1 (centres undefined) [TERFENADINE],ABSOLUTE BASOPHIL,[1],0 CELLS/uL
same,ABSOLUTE EOSINOPHIL,[1],0 CELLS/uL
same,ABSOLUTE LYMPHOCYTE,[1],10879.67 CELLS/uL
same,ABSOLUTE MONOCYTE,[1],121.67 CELLS/uL
same,ABSOLUTE SEGMENTED NEUTROPHIL,[1],1165.33 CELLS/uL
same,BASOPHIL,[1],0%
same,EOSINOPHIL,[1],0%
same,ERYTHROCYTE COUNT,[1],5.45 x10E6/uL
same,HEMATOCRIT,[1],33.93%
same,HEMOGLOBIN,[1],12.77 G/DL
same,LEUKOCYTE COUNT,[1],12.17 x10E3/uL
same,LYMPHOCYTE,[1],89.33%
same,MEAN CORPUSCULAR HEMOGLOBIN,[1],23.43 pg
same,MEAN CORPUSCULAR HEMOGLOBIN CONCENTRATION,[1],37.63 G/DL
same,MEAN CORPUSCULAR VOLUME,[1],62.27 fL
same,MONOCYTE,[1],1%
same,NEUTROPHIL,[1],9.67%
same,NUCLEATED RED BLOOD CELLS,[1],0 /100WBC
same,PLATELET COUNT,[1],1158.33 x10E3/uL
same,ALANINE AMINOTRANSFERASE,[1],52.67 u/L
same,ALBUMIN,[1],4.13 G/DL
same,ALKALINE PHOSPHATASE,[1],451 u/L
same,ASPARTATE AMINOTRANSFERASE,[1],72 u/L
same,BLOOD UREA NITROGEN,[1],16.67 mg/dL
same,CARBON DIOXIDE,[1],22.67 mmol/L
same,CHOLESTEROL,[1],70 mg/dL
same,CREATINE PHOSPHOKINASE,[1],139.33 u/L
same,CREATININE,[1],0.18 mg/dL
same,GLUCOSE,[1],155.33 mg/dL
same,LACTATE DEHYDROGENASE,[1],130.33 u/L
same,LIPASE,[1],10.67 u/L
same,PHOSPHORUS,[1],13.47 mg/dL
same,SODIUM,[1],145.6 MEQ/L
same,TOTAL BILIRUBIN,[1],0.17 mg/dL
same,TOTAL PROTEIN,[1],6.1 G/DL
same,URIC ACID,[1],1.37 mg/dL
same,ABSOLUTE BASOPHIL,[2],0 CELLS/uL
same,ABSOLUTE EOSINOPHIL,[2],0 CELLS/uL
same,ABSOLUTE LYMPHOCYTE,[2],14283 CELLS/uL
same,ABSOLUTE MONOCYTE,[2],352.67 CELLS/uL
same,ABSOLUTE SEGMENTED NEUTROPHIL,[2],1897.67 CELLS/uL
same,BASOPHIL,[2],0%
same,EOSINOPHIL,[2],0%
same,ERYTHROCYTE COUNT,[2],5.72 x10E6/uL
same,HEMATOCRIT,[2],34.8%
same,HEMOGLOBIN,[2],13.17 G/DL
same,LEUKOCYTE COUNT,[2],16.53 x10E3/uL
same,LYMPHOCYTE,[2],86.67%
same,MEAN CORPUSCULAR HEMOGLOBIN,[2],23.03 pg
same,MEAN CORPUSCULAR HEMOGLOBIN CONCENTRATION,[2],37.83 G/DL
same,MEAN CORPUSCULAR VOLUME,[2],60.87 fL
same,MONOCYTE,[2],2%
same,NEUTROPHIL,[2],11.33%
same,NUCLEATED RED BLOOD CELLS,[2],0 /100WBC
same,PLATELET COUNT,[2],993 x10E3/uL
same,ALANINE AMINOTRANSFERASE,[2],51.33 u/L
same,ALBUMIN,[2],4.13 G/DL
same,ALKALINE PHOSPHATASE,[2],285 u/L
same,ASPARTATE AMINOTRANSFERASE,[2],91.33 u/L
same,BLOOD UREA NITROGEN,[2],16 mg/dL
same,CARBON DIOXIDE,[2],26.67 mmol/L
same,CHOLESTEROL,[2],66.67 mg/dL
same,CREATINE PHOSPHOKINASE,[2],518.33 u/L
same,CREATININE,[2],0.2 mg/dL
same,GLUCOSE,[2],156 mg/dL
same,LACTATE DEHYDROGENASE,[2],390.67 u/L
same,LIPASE,[2],10.67 u/L
same,PHOSPHORUS,[2],13.3 mg/dL
same,SODIUM,[2],144.33 MEQ/L
same,TOTAL BILIRUBIN,[2],0.1 mg/dL
same,TOTAL PROTEIN,[2],6 G/DL
same,URIC ACID,[2],1.43 mg/dL
same,ABSOLUTE BASOPHIL,[3],0 CELLS/uL
same,ABSOLUTE EOSINOPHIL,[3],0 CELLS/uL
same,ABSOLUTE LYMPHOCYTE,[3],14273 CELLS/uL
same,ABSOLUTE MONOCYTE,[3],481.67 CELLS/uL
same,ABSOLUTE SEGMENTED NEUTROPHIL,[3],1312 CELLS/uL
same,BASOPHIL,[3],0%
same,EOSINOPHIL,[3],0%
same,ERYTHROCYTE COUNT,[3],6.18 x10E6/uL
same,HEMATOCRIT,[3],38.5%
same,HEMOGLOBIN,[3],14.53 G/DL
same,LEUKOCYTE COUNT,[3],16.07 x10E3/uL
same,LYMPHOCYTE,[3],88.67%
same,MEAN CORPUSCULAR HEMOGLOBIN,[3],23.5 pg
same,MEAN CORPUSCULAR HEMOGLOBIN CONCENTRATION,[3],37.77 G/DL
same,MEAN CORPUSCULAR VOLUME,[3],62.27 fL
same,MONOCYTE,[3],3%
same,NEUTROPHIL,[3],8.33%
same,NUCLEATED RED BLOOD CELLS,[3],0 /100WBC
same,PLATELET COUNT,[3],1171.33 x10E3/uL
same,ALANINE AMINOTRANSFERASE,[3],99 u/L
same,ALBUMIN,[3],4.33 G/DL
same,ALKALINE PHOSPHATASE,[3],343.33 u/L
same,ASPARTATE AMINOTRANSFERASE,[3],108 u/L
same,BLOOD UREA NITROGEN,[3],13.33 mg/dL
same,CARBON DIOXIDE,[3],21.33 mmol/L
same,CHOLESTEROL,[3],50 mg/dL
same,CREATINE PHOSPHOKINASE,[3],417.33 u/L
same,CREATININE,[3],0.18 mg/dL
same,GLUCOSE,[3],144.33 mg/dL
same,LACTATE DEHYDROGENASE,[3],236.33 u/L
same,LIPASE,[3],8.67 u/L
same,PHOSPHORUS,[3],12.17 mg/dL
same,SODIUM,[3],145.77 MEQ/L
same,TOTAL BILIRUBIN,[3],0.23 mg/dL
same,TOTAL PROTEIN,[3],5.97 G/DL
same,URIC ACID,[3],1.57 mg/dL
same,ABSOLUTE BASOPHIL,[4],0 CELLS/uL
same,ABSOLUTE EOSINOPHIL,[4],72 CELLS/uL
same,ABSOLUTE LYMPHOCYTE,[4],15584.33 CELLS/uL
same,ABSOLUTE MONOCYTE,[4],134.67 CELLS/uL
same,ABSOLUTE SEGMENTED NEUTROPHIL,[4],2309 CELLS/uL
same,BASOPHIL,[4],0%
same,EOSINOPHIL,[4],0.33%
same,ERYTHROCYTE COUNT,[4],6.8 x10E6/uL
same,HEMATOCRIT,[4],40.3%
same,HEMOGLOBIN,[4],15.4 G/DL
same,LEUKOCYTE COUNT,[4],18.1 x10E3/uL
same,LYMPHOCYTE,[4],86.33%
same,MEAN CORPUSCULAR HEMOGLOBIN,[4],22.7 pg
same,MEAN CORPUSCULAR HEMOGLOBIN CONCENTRATION,[4],38.23 G/DL
same,MEAN CORPUSCULAR VOLUME,[4],59.33 fL
same,MONOCYTE,[4],0.67%
same,NEUTROPHIL,[4],12.67%
same,NUCLEATED RED BLOOD CELLS,[4],0 /100WBC
same,PLATELET COUNT,[4],1002.67 x10E3/uL
same,ALANINE AMINOTRANSFERASE,[4],124.67 u/L
same,ALBUMIN,[4],4.3 G/DL
same,ALKALINE PHOSPHATASE,[4],360.33 u/L
same,ASPARTATE AMINOTRANSFERASE,[4],104.67 u/L
same,BLOOD UREA NITROGEN,[4],16.67 mg/dL
same,CARBON DIOXIDE,[4],27.67 mmol/L
same,CHOLESTEROL,[4],55.67 mg/dL
same,CREATINE PHOSPHOKINASE,[4],566 u/L
same,CREATININE,[4],0.26 mg/dL
same,GLUCOSE,[4],128 mg/dL
same,LACTATE DEHYDROGENASE,[4],180.33 u/L
same,LIPASE,[4],9.67 u/L
same,PHOSPHORUS,[4],12.07 mg/dL
same,SODIUM,[4],145.6 MEQ/L
same,TOTAL BILIRUBIN,[4],0.13 mg/dL
same,TOTAL PROTEIN,[4],6.27 G/DL
same,URIC ACID,[4],1.9 mg/dL
